Assay results reported in US20220235073A1, “ARTEMISININ-DERIVATIVE N-HETEROCYCLIC CARBENE GOLD(I) HYBRID COMPLEXES” (CENTRE NATIONAL DE LA RECHERCHE SCIENTIFIQUE, priority 2019, published 2022).
Where two headings read alike, the source gives them in different places.

What was measured:
[1] = test system: U-2OS human osteosarcoma; assay: Cell viability MTT assay, U-2OS; assay type: cell-based; settings: for GI50: 72 h, MTT assay; for IC50: Table 3, tumor cell model, read-out: IC50 U2OS (bone tumor)
Protocol: (§1) PC-3 human prostate cancer cells, and LAMA chronic myeloid leukemia were cultured in RPMI 1640 containing 10% fetal bovine serum and 1% antibiotics (100 U/mL penicillin and 100 μg/mL streotimycin) at 37° C. in 5% CO2 humidified incubators. HL60 chronic myeloid leukemia were cultured in RPMI 1640 containing 15% fetal bovine serum and 1% antibiotics (100 U/mL penicillin and 100 μg/mL streotimycin) at 37° C. in 5% CO2 humidified incubators. HepG-2 human liver cancer cells were cultured in EMEM containing 10% of FBS, 1% of nonessential amino acids, 1 mM of Na-pyruvate, 1% of PenStrep antibiotics and 600 μg/mL of Geneticin. A549 human lung carcinoma cells, T24 human bladder carcinoma cells, MCF-7 human breast adenocarcinoma cells, U-2OS human osteosarcoma and NIH3T3 murine fibroblast cells were cultured in DMEM medium containing 10% fetal bovine serum and 1% antibiotics at 37° C. in 5% CO2 humidified incubators. MC3T3 mouse osteoblast cells were cultured in MEM medium containing 10% fetal bovine serum and 1% antibiotics at 37° C. in 5% CO2 humidified incubators. RWPE-1 human prostate normal cells were cultured in K-SFM medium containing 0.05 mg/ml bovine pituitary extract (BPE) and 5 ng/ml epidermal growth factor (EGF) at 37° C. in 5% CO2 humidified incubators. The MTT reagent (3-(4,5-dimethylthiazol-2-yl)-2,5-diphenyltetrazolium bromide) was used to determine cell death as originally described by Mosmaneland modified by Cuvillier et al.^[6] Briefly, cells were seeded 5,000 to 10,000 cells/well in 24-well plates depending on the cell type and allowed to attach overnight. All of the complexes were dissolved in DMSO. The concentration of the complexes was calculated according to the elemental composition of the complexes determined by the elemental analyses. Media in the presence of the tested complexes were added and serially diluted to various concentrations (from 5 μM to 0.01 μM). Next to these concentrations, for DHA 50, 20 and 10 μM and for the cationic bisNHC gold(I) complex 3 0.001 μM have been used. […] After 72 h of treatment, cells were incubated at 37° C. and 5% CO2 with 25 μL MTT solution (5 mg/mL; Sigma-Aldrich) in 24-well plates for approximately 3 to 4 h. After solubilization with 500 μL of lysis buffer (DMSO), formazan was quantified by spectrophotometry with a microplate reader at 570 nm absorbance. The GI50 values corresponding to the concentration that caused 50% inhibition of cell proliferation were calculated from dose-response curves obtained by nonlinear regression analysis (Prism 8, Graphpad Software). All the results were calculated from data obtained in three independent experiments.

[2] = test system: HL60 (acute myeloid leukemia); assay: Cell viability MTT assay, HL60; assay type: cell-based; settings: for GI50: 72 h, MTT assay; for IC50: Table 3, tumor cell model
Protocol: as §1

[3] = test system: NIH3T3 murine fibroblast cells; assay: Cell viability MTT assay, NIH3T3; assay type: cell-based; settings: for GI50: 72 h, MTT assay; for Selectivity index NIH3T3: SI = GI50 (non-cancer cell line NIH3T3)/GI50 (cancer cell line PC-3); for IC50: Table 3, non tumoral cell model, read-out: IC50 NIH3T3 (fibroblasts)
Protocol: as §1, with “HepG-2” for “PC-3 human prostate cancer cells, and LAMA chronic myeloid leukemia were cultured in RPMI 1640 containing 10% fetal bovine serum and 1% antibiotics (100 U/mL penicillin and 100 μg/mL streotimycin) at 37° C. in 5% CO2 humidified incubators. HL60 chronic myeloid leukemia were cultured in RPMI 1640 containing 15% fetal bovine serum and 1% antibiotics (100 U/mL penicillin and 100 μg/mL streotimycin) at 37° C. in 5% CO2 humidified incubators. HepG-2”, “The GI50 values corresponding to the concentration that caused 50% inhibition of cell proliferation were calculated from dose-response curves obtained by nonlinear regression analysis (Prism 8, Graphpad Software).” left out

[4] = test system: LAMA chronic myeloid leukemia; assay: Cell viability MTT assay, LAMA; assay type: cell-based, human; settings: for GI50: 72 h, MTT assay; for IC50: Table 3, tumor cell model
Protocol: as §1

[5] = test system: A549 human lung carcinoma cells; assay: Cell viability MTT assay, A549; assay type: cell-based; settings: for GI50: 72 h, MTT assay; for IC50: Table 3, tumor cell model
Protocol: as §1

[6] = test system: MCF-7 human breast adenocarcinoma cells; assay: Cell viability MTT assay, MCF-7; assay type: cell-based; settings: for GI50: 72 h, MTT assay; for IC50: Table 3, tumor cell model
Protocol: as §1

[7] = test system: MC3T3 mouse osteoblast cells; assay: Cell viability MTT assay, MC3T3; assay type: cell-based; settings: for GI50: 72 h, MTT assay; for Selectivity index MC3T3: SI = GI50 (MC3T3)/GI50 (PC-3); for IC50: Table 3, non tumoral cell model, read-out: IC50 MC3-T3 (osteoblasts); for Specificity Bone: MC3-T3 (normal immortalized)/U2OS (tumoral): ratio of IC50, tumoral versus non tumoral cells of same tissue
Protocol: as §1

[8] = test system: Tumor cell models; assay: MTT assay, panel of tumor cell models; assay type: cell-based, human; settings: mean of PC-3, A549, U2OS, T24, MCF-7, LAMA, HL60
Protocol: (§2) PC-3 human prostate cancer cells, and LAMA chronic myeloid leukemia were cultured in RPMI 1640 containing 10% fetal bovine serum and 1% antibiotics (100 U/mL penicillin and 100 μg/mL streotimycin) at 37° C. in 5% CO2 humidified incubators. HL60 […] were cultured in RPMI 1640 containing 15% fetal bovine serum and 1% antibiotics (100 U/mL penicillin and 100 μg/mL streotimycin) at 37° C. in 5% CO2 humidified incubators. HepG-2 human liver cancer cells were cultured in EMEM containing 10% of FBS, 1% of nonessential amino acids, 1 mM of Na-pyruvate, 1% of PenStrep antibiotics and 600 μg/mL of Geneticin. A549 human lung carcinoma cells, T24 human bladder carcinoma cells, MCF-7 human breast adenocarcinoma cells, U-2OS human osteosarcoma and NIH3T3 murine fibroblast cells were cultured in DMEM medium containing 10% fetal bovine serum and 1% antibiotics at 37° C. in 5% CO2 humidified incubators. MC3T3 mouse osteoblast cells were cultured in MEM medium containing 10% fetal bovine serum and 1% antibiotics at 37° C. in 5% CO2 humidified incubators. RWPE-1 human prostate normal cells were cultured in K-SFM medium containing 0.05 mg/ml bovine pituitary extract (BPE) and 5 ng/ml epidermal growth factor (EGF) at 37° C. in 5% CO2 humidified incubators. The MTT reagent (3-(4,5-dimethylthiazol-2-yl)-2,5-diphenyltetrazolium bromide) was used to determine cell death as originally described by Mosmaneland modified by Cuvillier et al.^[6] Briefly, cells were seeded 5,000 to 10,000 cells/well in 24-well plates depending on the cell type and allowed to attach overnight. All of the complexes were dissolved in DMSO. The concentration of the complexes was calculated according to the elemental composition of the complexes determined by the elemental analyses. […] After solubilization with 500 μL of lysis buffer (DMSO), formazan was quantified by spectrophotometry with a microplate reader at 570 nm absorbance. […] All the results were calculated from data obtained in three independent experiments.

[9] = test system: T24 human bladder carcinoma cells; assay: Cell viability MTT assay, T24; assay type: cell-based; settings: for GI50: 72 h, MTT assay; for IC50: Table 3, tumor cell model
Protocol: as §1

[10] = test system: RWPE-1 human prostate normal cells; assay: Cell viability MTT assay, RWPE-1; assay type: cell-based; settings: for GI50: 72 h, MTT assay; for Selectivity index RWPE-1: SI = GI50 (RWPE-1)/GI50 (PC-3); for IC50: Table 3, non tumoral cell model, read-out: IC50 RWPE1 (prostatic epithelial cells); for Specificity Prostate: RWPE1 (normal immortalized)/PC-3 (tumoral): ratio of IC50, tumoral versus non tumoral cells of same tissue
Protocol: as §1, with “HepG-2” for “PC-3 human prostate cancer cells, and LAMA chronic myeloid leukemia were cultured in RPMI 1640 containing 10% fetal bovine serum and 1% antibiotics (100 U/mL penicillin and 100 μg/mL streotimycin) at 37° C. in 5% CO2 humidified incubators. HL60 chronic myeloid leukemia were cultured in RPMI 1640 containing 15% fetal bovine serum and 1% antibiotics (100 U/mL penicillin and 100 μg/mL streotimycin) at 37° C. in 5% CO2 humidified incubators. HepG-2”, “The GI50 values corresponding to the concentration that caused 50% inhibition of cell proliferation were calculated from dose-response curves obtained by nonlinear regression analysis (Prism 8, Graphpad Software).” left out

[11] = test system: HepG-2 human liver cancer cells; assay: Cell viability MTT assay, HepG-2; assay type: cell-based
Protocol: as §2

[12] = test system: Non tumoral cell models (MC3-T3, NIH3T3, RWPE1); assay: MTT assay, mean over non tumoral cell models; assay type: cell-based; settings: mean of MC3-T3, NIH3T3, RWPE1
Protocol: as §2

[13] = test system: PC-3 human prostate cancer cells; assay: Cell viability MTT assay, PC-3; assay type: cell-based; settings: for GI50: 72 h, MTT assay; for IC50: Table 3, tumor cell model

CC(=O)OC[C@H]1O[C@@H]([S-])[C@H](OC(C)=O)[C@@H](OC(C)=O)[C@@H]1OC(C)=O.CCP(CC)CC.[Au+] [Auranofin]
GI50 ([1]; read-out: GI50 U2OS): 0.47 µM
IC50 [1]: 0.474 µM
GI50 [2]: 0.95 µM
IC50 [2]: 0.951 µM
GI50 [3]: 1.1 µM
Selectivity index NIH3T3 [3]: 1.0
IC50 [3]: 1.1 µM
GI50 [4]: 0.81 µM
IC50 [4]: 0.809 µM
GI50 [5]: 4.41 µM
IC50 [5]: 4.41 µM
GI50 [6]: 1.39 µM
IC50 [6]: 1.39 µM
GI50 [7]: 1.39 µM
Selectivity index MC3T3 [7]: 1.2
IC50 [7]: 1.39 µM
Specificity Bone: MC3-T3 (normal immortalized)/U2OS (tumoral) [7]: 2.9
IC50 [8]: 1.46 µM
GI50 [9]: 1.1 µM
IC50 [9]: 1.1 µM
GI50 [10]: 0.084 µM
Selectivity index RWPE-1 [10]: 0.1
IC50 [10]: 0.084 µM
Specificity Prostate: RWPE1 (normal immortalized)/PC-3 (tumoral) [10]: 0.1
GI50 ([11]; 72 h): 3.62 µM
IC50 [12]: 0.86 µM
GI50 [13]: 1.09 µM
IC50 [13]: 1.09 µM

C[C@H]1[C@@H](O)O[C@@H]2O[C@]3(C)CC[C@H]4[C@H](C)CC[C@@H]1[C@@]24OO3 [DHA, dihydroartemisinin]
GI50 ([1]; Homo sapiens, U2OS): 4.1 µM
IC50 ([1]; Homo sapiens, U2OS): 4.1 µM
GI50 ([2]; Homo sapiens, HL-60): 25 µM
IC50 ([2]; Homo sapiens, HL-60): 3.25 µM
GI50 ([3]; Mus musculus, NIH3T3): 3.86 µM
IC50 ([3]; Mus musculus, NIH3T3): 3.86 µM
Selectivity index NIH3T3 [3]: 2.5
GI50 ([4]; Homo sapiens): 5.6 µM
IC50 ([4]; Homo sapiens): 5.6 µM
GI50 ([5]; Homo sapiens, A549): 11 µM
IC50 ([5]; Homo sapiens, A549): 11 µM
GI50 ([6]; Homo sapiens, MCF7): 9.67 µM
IC50 ([6]; Homo sapiens, MCF7): 9.67 µM
GI50 ([7]; Mus musculus, Osteoblast): 3.55 µM
IC50 ([7]; Mus musculus, Osteoblast): 3.55 µM
Selectivity index MC3T3 [7]: 2.3
Specificity Bone: MC3-T3 (normal immortalized)/U2OS (tumoral) [7]: 0.9
IC50 ([8]; Homo sapiens): 5.74 µM
GI50 ([9]; Homo sapiens): 4.99 µM
IC50 ([9]; Homo sapiens): 4.99 µM
GI50 ([10]; Homo sapiens, RWPE-1): 9.68 µM
IC50 ([10]; Homo sapiens, RWPE-1): 9.68 µM
Selectivity index RWPE-1 [10]: 6.2
Specificity Prostate: RWPE1 (normal immortalized)/PC-3 (tumoral) [10]: 6.2
GI50 ([11]; Homo sapiens, HepG2, 72 h): 12 µM
IC50 [12]: 5.7 µM
GI50 ([13]; Homo sapiens): 1.56 µM
IC50 ([13]; Homo sapiens): 1.56 µM
